According to patent US7803930B2, “Antisense modulation of apolipoprotein B-expression” (Isis Pharmaceuticals, Inc., priority 2002, dated 2010):
In the oligonucleotide strings, read from the 5' end, every base follows the letter of its sugar. An asterisk marks phosphorothioate; unmarked linkages are phosphodiester. Other units and linkages are bracketed, terminal groups are in braces. A string of capitals states the bases alone. e = 2'-O-(2-methoxyethyl) (MOE); [5mC] = 5-methylcytosine; d = 2'-deoxy (DNA); r = 2'-OH (RNA)

Key:
Assay type in all cases: cell-based
[1] = test system: human apolipoprotein B mRNA; experiment: Inhibition of apolipoprotein B mRNA by dsRNAs in HepG2 cells; settings: 150 nM with 3.75 μg/mL LIPOFECTIN
Description: In accordance with the present invention, a series of nucleic acid duplexes comprising the antisense compounds of the present invention and their complements were designed to target apolipoprotein B and are shown in Table 42. All compounds in Table 42 are oligoribonucleotides 20 nucleotides in length with phosphodiester internucleoside linkages (backbones) throughout the compound. The compounds were prepared with blunt ends. […] These sequences are shown to contain uracil (U) but one of skill in the art will appreciate that uracil (U) is generally replaced by thymine (T) in DNA sequences. “Targer site” indicates the first (5′-most) nucleotide number on the particular target sequence to which the compound binds. A subset of the compounds in Table 42 are the RNA equivalents of DNA antisense oligonucleotides described herein, and, where applicable, this is noted by the ISIS # of the DNA oligonucleotide in the column “RNA equivalent of ISIS #”.
The dsRNA compounds in Table 42 were tested for their effects on human apolipoprotein mRNA in HepG2 cells. HepG2 cells were treated with 100 nM of dsRNA compounds mixed with 5 μg/mL LIPOFECTIN (Invitrogen Corporation, Carlsbad, Calif.) for a period of 16 hours. In the same experiment, HepG2 cells were also treated with 150 nM of subset of the antisense oligonucleotides described herein mixed with 3.75 μg/mL LIPOFECTIN; these compounds are listed in Table 43. Control oligonucleotides included ISIS 18078 ([…], SEQ ID NO: 888). ISIS 18078 is a chimeric oligonucleotide (“gapmer”) 20 nucleotides in length, composed of a central “gap” region consisting of 9 2′-deoxynucleotides, which is flanked on the 5′ and 3′ ends by a five-nucleotide “wing” and a six-nucleotide “wing”, respectively. The wings are composed of 2′-methoxyethyl (2′-MOE)nucleotides. The internucleoside (backbone) linkages are phosphorothioate (P═S) throughout the oligonucleotide. All cytidines are 5-methylcytidines. The duplex of ISIS 263188 ([…], SEQ ID NO: 889) and its complement was also used as a control. ISIS 263188 is an oligoribonucleotide 21 nucleotides in length with the 2 nucleotides on the 3′ end being oligodeoxyribonucleotides (TT) and with phosphodiester internucleoside linkages (backbones) throughout the compound.
Cells were treated for 4 hours, after which human apolipoprotein B mRNA expression was measured as described by examples herein. Results were normalized to untreated control cells, which were not treated with LIPOFECTIN or oligonucleotide.

[2] = test system: human apolipoprotein B mRNA; experiment: Inhibition of human apolipoprotein B mRNA levels in HepG2 cells, quantitative real-time PCR; settings: for % INHIB (inhibition of human apolipoprotein B mRNA levels): HepG2 cells treated with 150 nM of compound, averages from two experiments, quantitative real-time PCR; for % inhibition 37 nM / % inhibition 75 nM / % inhibition 150 nM / % inhibition 300 nM: Table 19 dose response, HepG2 cells, normalized to untreated control
In short: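 Apolipoprotein B transcript was quantified by one-step TaqMan RT-PCR, normalized to GAPDH or RiboGreen RNA, and expressed as percent inhibition against an untreated-sample standard curve. HepG2 cells were harvested 16-24 h after oligonucleotide exposure, which was delivered with 3.75 μg/mL Lipofectin over 4-7 h at 80% confluency.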

apolipoprotein B protein = experiment: Apolipoprotein B protein secreted from primary human hepatocytes, ELISA; settings: for % Inhibition of apolipoprotein B protein secretion: 24 hours
Description: (§1) Oligonucleotides were introduced into cells through LIPOFECTIN-mediated transfection as described by other examples herein. Cells were harvested both 24 and 48 hours after treatment with oligonucleotide, and both RNA and protein were isolated. Additionally, the culture media from treated cells was collected for ELISA analysis of apolipoprotein B protein secretion.
Apolipoprotein secreted from into the cultured cell media was measured in the samples treated with 50 and 150 nM of oligonucleotide, using a target protein specific ELISA kit (ALerCHEK Inc., Portland, Me.). Each result represents 3 experiments.
(§2) An additional experiment was performed to test the effects of ISIS 271009 (SEQ ID NO: 319), ISIS 281625 (SEQ ID NO: 224) and ISIS 301027 (SEQ ID NO: 262) on human apolipoprotein B mRNA in human primary hepatocytes. Cells were cultured as described herein and treated with 5, 10, 50 or 150 nM of ISIS 271009, ISIS 281625 or ISIS 301027 for a period of 24 hours. The control oligonucleotides ISIS 13650 (SEQ ID NO: 806) and ISIS 113529 (SEQ ID NO: 859) were used at 50 or 150 nM. Human apolipoprotein B mRNA expression was evaluated by real-time PCR as described by other examples herein. Apolipoprotein B protein secreted into the cultured cell media was measured in the samples treated with 50 and 150 nM of oligonucleotide, using a target protein specific ELISA kit (ALerCHEK Inc., Portland, Me.).

[3] = test system: human apolipoprotein(a) mRNA; experiment: Apolipoprotein(a) mRNA expression in primary human hepatocytes, real-time PCR; settings: human primary hepatocytes; 5, 10, 50 or 150 nM, 24 hours
Description: Primary human hepatocytes (InVitro Technologies, Baltimore, Md.), cultured and transfected as described herein, were treated with 5, 10, 50 or 150 nM of ISIS 271009 (SEQ ID NO: 319), 281625 (SEQ ID NO: 224), 301012 (SEQ ID NO: 247) or 301027 (SEQ ID NO: 262). Cells were also treated with 50 or 150 nM of the control oligonucleotides ISIS 113529 (SEQ ID NO: 859) or ISIS 13650 (SEQ ID NO: 806). Untreated cells served as a control. Following 24 hours of oligonucleotide treatment, apolipoprotein(a) mRNA expression was measured by quantitative real-time PCR as described in other examples herein.
Probes and primers to human apolipoprotein(a) were designed to hybridize to a human apolipoprotein(a) sequence, using published sequence information (GenBank accession number NM_005577.1, incorporated herein as SEQ ID NO: 860). For human apolipoprotein(a) the PCR primers were: […]
forward primer: […] (SEQ ID NO: 861)
reverse primer: TGCGTCTGAGCATTGCGT (SEQ ID NO: 862) and the PCR probe was: FAM-[…]-TAMRA (SEQ ID NO: 863) where FAM is the fluorescent dye and TAMRA is the quencher dye.
Data are the average of three experiments and are expressed as percent inhibition relative to untreated controls.

[4] = test system: human apolipoprotein B mRNA; experiment: Apolipoprotein B mRNA in primary human hepatocytes, real-time PCR
Description: In accordance with the present invention, antisense oligonucleotides targeted to human apolipoprotein B were tested in dose response studies in primary human hepatocytes. Pre-plated primary human hepatocytes were purchased from Invitro Technologies (Baltimore, Md.). Cells were cultured in high-glucose DMEM (Invitrogen Corporation, Carlsbad, Calif.) supplemented with 10% fetal bovine serum (Invitrogen Corporation, Carlsbad, Calif.), 100 units/mL and 100 μg/mL streptomycin (Invitrogen Corporation, Carlsbad, Calif.).
Human primary hepatocytes were treated with ISIS 301012 (SEQ ID NO: 247) at 10, 50, 150 or 300 nM. Untreated cells and cells treated with the scrambled control oligonucleotide ISIS 113529 ([…], SEQ ID NO: 859) served as two groups of control cells. ISIS 113529 is a chimeric oligonucleotide (“gapmer”) 20 nucleotides in length, composed of a central “gap” region consisting of ten 2′-deoxynucleotides, which is flanked on both sides (5′ and 3′ directions) by five-nucleotide “wings”. The wings are composed of 2′-methoxyethyl (2′-MOE)nucleotides. The internucleoside (backbone) linkages are phosphorothioate (P═S) throughout the oligonucleotide. All cytidines are 5-methylcytidines.
as §1
Apolipoprotein B mRNA expression was determined by real-time PCR of RNA samples as described by other examples herein. Each result represents 6 experiments.
as §2

[5] = test system: Cynomolgous monkey apolipoprotein B mRNA; experiment: Apolipoprotein B mRNA in primary Cynomolgous monkey hepatocytes, real-time PCR; settings: Cynomolgous monkey primary hepatocytes; 10, 50 and 150 nM, 24 hours
Description: Antisense inhibition by ISIS 301012 was compared to that of ISIS 326358, which is a perfect match to the Cynomolgous monkey apolipoprotein B sequence to which ISIS 301012 hybridizes. The compounds were analyzed for their effect on Cynomolgous monkey apolipoprotein B mRNA levels in primary Cynomolgous monkey hepatocytes purchased from In Vitro Technologies ([…].). Pre-plated primary Cynonomolgous monkey hepatocytes were purchased from InVitro Technologies (Baltimore, Md.). Cells were cultured in high-glucose DMEM (Invitrogen Corporation, Carlsbad, Calif.) supplemented with 10% fetal bovine serum (Invitrogen Corporation, Carlsbad, Calif.), 100 units/mL and 100 μg/mL streptomycin (Invitrogen Corporation, Carlsbad, Calif.).
Primary Cynomolgous monkey hepatocytes were treated with 10, 50, 150 or 300 nM of antisense oligonucleotides for 48 hours. ISIS 113529 (SEQ ID NO: 859) was used as a control oligonucleotide. Untreated cells also served as a control. Cynomolgous monkey apolipoprotein B mRNA levels were quantitated by real-time PCR using the human apolipoprotein B and GAPDH primers and probes described by other examples herein. The results, shown in Table 44, are the average of 6 experiments and are expressed as percent inhibition of apolipoprotein B mRNA normalized to untreated control cells.
In a further embodiment of the invention, antisense inhibition by ISIS 281625 was compared to that by ISIS 315089, which is a perfect match to the Cynomolgous monkey apolipoprotein B sequence to which ISIS 281625 hybridizes. Primary Cynomolgous monkey hepatocytes, cultured as described herein, were treated with 10, 50, 150 or 300 nM of ISIS 315089 or ISIS 281625 for 24 hours. Cells were treated with the control oligonucleotide ISIS 13650 (SEQ ID NO: 806) at 150 and 300 nM or ISIS 113529 (SEQ ID NO: 859) at 300 nM. Untreated cells also served as a control. Cynomolgous monkey apolipoprotein B mRNA levels in primary Cynomolgous monkey hepatocytes was quantitated using real-time PCR with human primers and probe as described by other examples herein. The results, shown in Table 46, are the average of 3 experiments and are expressed as percent inhibition of apolipoprotein B mRNA normalized to untreated control cells.
ISIS 271009 (SEQ ID NO: 319) and ISIS 301027 (SEQ ID NO: 262) were also tested for their effects on apolipoprotein B mRNA and protein expression in Cynomolgous primary hepatoctyes. Cells, cultured as described herein, were treated with 10, 50 and 150 nM of ISIS 271009 or ISIS 301027 for 24 hours. Cells were treated with the control oligonucleotide ISIS 113529 (SEQ ID NO: 859) at 150 nM. Untreated cells also served as a control. Cynomolgous monkey apolipoprotein B mRNA levels in primary Cynomolgous monkey hepatocytes was quantitated using real-time PCR with human primers and probe as described by other examples herein. The results, shown in Table 48, are the average of 2 experiments and are expressed as percent inhibition of apolipoprotein B mRNA normalized to untreated control cells.

Substance: 18078 (antisense eG*eT*eG*e[5mC]*eG*d[5mC]*dG*d[5mC]*dG*dA*dG*d[5mC]*d[5mC]*d[5mC]*eG*eA*eA*eA*eT*e[5mC]) [compound 18078]
- % Inhibition of apolipoprotein B mRNA [1]: 13%

Substance: 263188 (rCrUrUrCrUrGrGrCrArUrCrCrGrGrUrUrUrArGdTdT; siRNA) [compound 263188]
- % Inhibition of apolipoprotein B mRNA [1]: 26%

Substance: 301014 (e[5mC]*eA*eG*e[5mC]*e[5mC]*d[5mC]*d[5mC]*dG*d[5mC]*dA*dG*dG*dT*d[5mC]*d[5mC]*e[5mC]*eG*eG*eT*eG; antisense) [compound 301014]
- % Inhibition of apolipoprotein B mRNA [1]: 88%
- % INHIB (inhibition of human apolipoprotein B mRNA levels) [2]: 88%
- % inhibition 37 nM [2]: 75%
- % inhibition 75 nM [2]: 90%
- % inhibition 150 nM [2]: 96%
- % inhibition 300 nM [2]: 98%

Substance: 301021 (eG*eG*eT*e[5mC]*e[5mC]*dA*dT*d[5mC]*dG*d[5mC]*d[5mC]*dA*dG*d[5mC]*dT*eG*e[5mC]*eG*eG*eT; antisense) [compound 301021]
- % Inhibition of apolipoprotein B mRNA [1]: 67%
- % INHIB (inhibition of human apolipoprotein B mRNA levels) [2]: 89%

Substance: 301028 (eG*eG*e[5mC]*eT*e[5mC]*dA*d[5mC]*dT*dG*dT*dA*dT*dG*dG*dT*eT*eT*eT*eA*eT; antisense) [compound 301028]
- % Inhibition of apolipoprotein B mRNA [1]: 85%
- % INHIB (inhibition of human apolipoprotein B mRNA levels) [2]: 93%
- % inhibition 37 nM [2]: 70%
- % inhibition 75 nM [2]: 79%
- % inhibition 150 nM [2]: 85%
- % inhibition 300 nM [2]: 92%

Substance: GCCTCAGTCTGCTTCGCGCC (2'-MOE gapmer, further chemistry not given here) [ISIS 271009]
- % Inhibition of apolipoprotein B protein secretion (apolipoprotein B protein; 50 nM): 17%
- % Inhibition of apolipoprotein B protein secretion (apolipoprotein B protein; 150 nM, "+" = increased): 32%
- secretion of apolipoprotein B protein from cells (ELISA) (apolipoprotein B protein; 50 and 150 nM): inhibit the secretion of apolipoprotein B protein from cells in a dose-dependent manner
- expression of apolipoprotein(a) mRNA [3]: inhibited apolipoprotein(a) expression at the highest dose
- % Inhibition of apolipoprotein B mRNA expression ([4]; 5 nM, 24 hours, "+" = expression increased): +4%
- % Inhibition of apolipoprotein B mRNA expression ([4]; 10 nM, 24 hours (Table 37)): 5%
- % Inhibition of apolipoprotein B mRNA expression ([4]; 50 nM, 24 hours (Table 37)): 52%
- % Inhibition of apolipoprotein B mRNA expression ([4]; 150 nM, 24 hours (Table 37)): 81%
- apolipoprotein B mRNA expression ([4]; 5, 10, 50 or 150 nM, 24 hours): inhibit apolipoprotein B mRNA expression in a dose-dependent manner
- inhibition of apolipoprotein B mRNA expression [5]: in a dose-dependent manner
